Legend:
[1] = test system: mice forced swimming immobility time; assay: Forced swimming test in mice (anti-depression model); assay type: in vivo, Male Kunming mice
Procedure: In Vivo Study: The Forced Swimming Test in Mice (Evaluation on Anti-Depression Model)
Male Kunming mice, approximately 20 g, were randomized into six groups, i.e. normal group, positive drug group (fluoxetine 20 mg/kg), group A (5 mg/kg Compound 1), group B (10 mg/kg Compound 1), group C (20 mg/kg Compound 1), and group D (40 mg/kg Compound 1).
Single Dose Test: Mice were normally fed for 1 day and allowed to adapt to the environment. Then the mice were fasted (except water) for 16 hours, and were intragastrically administrated with a single dose of the test drug, and the normal group was intragastrically administrated with an equivalent amount of distilled water. 40 min after administration, the mice were placed in forced swimming test device (swimming environment: pool diameter 12.5 cm cylinder, water temperature 25° C. and water depth 10 cm). Mice swam for six minutes, and the immobility time (i.e., the time during which the limbs were immobile, or only the feet were thrashing or paddling) was recorded with an animal behavioral record system, for the latter 4 min within the 6 min recording period, and was used for statistical analysis.
(§1) Study with Three-Day Consecutive Dosing: Mice were normally fed for 1 day and allowed to adapt to the environment. Then the mice were intragastrically administrated with the test drug consecutively for three days (once per day). The normal group was intragastrically administrated equivalent amount of distilled water. Mice were fasted (except water) for 16 hours before the last dosing. 40 min after the last dosing, the mice were placed in forced swimming test device (swimming environment: pool diameter 12.5 cm cylinder, water temperature 25° C. and water depth 10 cm). Mice swam for six minutes, and the immobility time (i.e., the time during which the limbs were immobile, or only the feet were thrashing or paddling) was recorded with an animal behavioral record system, for the latter 4 min within the 6 min recording period, and was used for statistical analysis.
as §1, with “Seven-Day” for “Three-Day”, “seven” for “three”

[2] = target: T1, cyclooxygenase-2 (COX-2 enzyme) (Homo sapiens, UniProt P35354); assay: Human whole blood in vitro activity assay, COX-2 (LPS-induced PGE2 by EIA); assay type: cell-based
T1 construct: from tissue; host or cells: heparinised human whole blood from healthy volunteers, stimulated with LPS
T1 sequence (P35354 18-604): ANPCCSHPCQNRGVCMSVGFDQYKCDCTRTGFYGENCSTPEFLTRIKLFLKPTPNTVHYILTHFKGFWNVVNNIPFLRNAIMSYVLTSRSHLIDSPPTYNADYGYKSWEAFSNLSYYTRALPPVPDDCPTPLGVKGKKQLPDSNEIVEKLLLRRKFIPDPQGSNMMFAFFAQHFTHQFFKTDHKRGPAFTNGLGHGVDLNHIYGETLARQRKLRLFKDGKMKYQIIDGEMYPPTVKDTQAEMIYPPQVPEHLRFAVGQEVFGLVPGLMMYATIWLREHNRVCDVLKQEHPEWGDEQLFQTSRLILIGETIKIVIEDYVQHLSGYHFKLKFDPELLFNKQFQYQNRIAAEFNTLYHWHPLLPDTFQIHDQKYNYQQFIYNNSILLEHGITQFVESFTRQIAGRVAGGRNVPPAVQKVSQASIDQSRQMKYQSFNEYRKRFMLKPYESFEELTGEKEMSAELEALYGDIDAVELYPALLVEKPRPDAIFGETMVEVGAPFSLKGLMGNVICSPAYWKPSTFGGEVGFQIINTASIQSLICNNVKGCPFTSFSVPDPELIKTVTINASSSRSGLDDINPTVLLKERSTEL
Procedure: (§2) Human whole blood in vitro activity study: inhibition of activity of cyclooxygenase-1 (COX-1 enzyme) and cyclooxygenase-2 (COX-2 enzyme) in human blood. […] The blood samples were divided into two parts: one was used for detecting COX-1 enzyme activity, and the other was used for detecting COX-2 enzyme activity. The compounds were dissolved in DMSO, and were prepared in advance into 2 μL solutions in respective concentrations of 500, 50, 5, 0.5, 0.05, 0.005, 0.0005 μg/mL. 200 μL whole blood without heparin was added in the tubes containing the compounds, and then incubated at 37° C. for 1 hour. The activity of COX-1 enzyme was detected by determining the amount of thromboxane B2 (TXB2) synthesized by platelet using an EIA kit. Samples tested without the compounds were negative controls. For COX-2, 200 μL whole blood with heparin was added in the tubes containing the compounds and in the tubes containing 10 μg/mL LPS. LPS control and blank control with solvent only were used respectively for determining the maximum value and the background value of the PGE2 produced therefrom. The samples were incubated at 37° C. for 24 hours, and then centrifuged to collect serum/plasma, which was stored at −80° C. for detection by an EIA kit. The EIA kit of Cayman Company was used, the amounts of TXB2 and PGE2 were determined in accordance to the manufacturer's instructions, and the activities of COX-1 and COX-2 were tested respectively.

[3] = target: T2, cyclooxygenase-1 (COX-1 enzyme) (Homo sapiens, UniProt P23219); assay: Human whole blood in vitro activity assay, COX-1 (TXB2 by EIA); assay type: cell-based; details: read-out: IC50 (μg/mL) COX-1 (converted)
T2 construct: from tissue; host or cells: human whole blood without heparin (platelets) from healthy volunteers
Procedure: as §2

T2 sequence (P23219 24-599): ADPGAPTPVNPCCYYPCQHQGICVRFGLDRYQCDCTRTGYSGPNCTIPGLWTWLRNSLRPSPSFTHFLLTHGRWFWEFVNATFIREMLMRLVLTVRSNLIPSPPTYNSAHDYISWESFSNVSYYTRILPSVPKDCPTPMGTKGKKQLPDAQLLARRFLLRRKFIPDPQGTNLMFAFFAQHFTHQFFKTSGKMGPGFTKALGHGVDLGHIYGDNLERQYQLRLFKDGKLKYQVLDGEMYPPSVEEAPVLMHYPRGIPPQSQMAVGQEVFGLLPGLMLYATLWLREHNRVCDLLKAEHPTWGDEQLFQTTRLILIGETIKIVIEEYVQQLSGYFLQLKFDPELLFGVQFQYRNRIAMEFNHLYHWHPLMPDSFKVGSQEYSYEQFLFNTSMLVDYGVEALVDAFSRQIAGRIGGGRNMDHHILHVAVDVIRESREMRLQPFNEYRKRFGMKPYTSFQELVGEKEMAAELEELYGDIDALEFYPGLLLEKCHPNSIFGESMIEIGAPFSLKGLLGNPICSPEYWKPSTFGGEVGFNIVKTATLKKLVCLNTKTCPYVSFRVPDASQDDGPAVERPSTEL

Structure (SMILES): CS(=O)(=O)c1ccc(-n2cnc(Cl)c2-c2ccccc2)nc1 [Compound 1, 2-(4-chloro-5-phenyl-1H-imidazol-1-yl)-5-(methylsulfonyl)pyridine]
- forced swimming Immobility time ([1]; 3 days consecutive administration, 5 mg/kg intragastric, 5 mg/kg): tendency of reduction in forced swimming immobility time
- forced swimming Immobility time ([1]; 3 days consecutive administration, 5 mg/kg intragastric, 5 mg/kg, in s (unit assumed)): 119.73 ± 24.55
- forced swimming Immobility time ([1]; 3 days consecutive administration, 10 mg/kg intragastric, in s (unit assumed)): 91.73 ± 22.08
- forced swimming Immobility time ([1]; 3 days consecutive administration, 20 mg/kg intragastric, in s (unit assumed)): 83.12 ± 32.57
- forced swimming Immobility time ([1]; 3 days consecutive administration, 40 mg/kg intragastric, in s (unit assumed)): 63.32 ± 30.46
- forced swimming Immobility time ([1]; 7 days consecutive administration, 5 mg/kg intragastric, 5 mg/kg): tendency of reduction in forced swimming immobility time
- forced swimming Immobility time ([1]; 7 days consecutive administration, 5 mg/kg intragastric, 5 mg/kg, in s (unit assumed)): 102.72 ± 34.07
- forced swimming Immobility time ([1]; 7 days consecutive administration, 10 mg/kg intragastric, in s (unit assumed)): 86.40 ± 34.65
- forced swimming Immobility time ([1]; 7 days consecutive administration, 20 mg/kg intragastric, in s (unit assumed)): 86.84 ± 30.21
- forced swimming Immobility time ([1]; 7 days consecutive administration, 40 mg/kg intragastric, in s (unit assumed)): 83.84 ± 35.50
- forced swimming Immobility time ([1]; single dose, 5 mg/kg intragastric, 40 min after administration, 5 mg/kg): tendency of reduction in forced swimming immobility time
- forced swimming Immobility time ([1]; single dose, 5 mg/kg intragastric, 40 min after administration, 5 mg/kg, in s (unit assumed)): 102.24 ± 27.33
- forced swimming Immobility time ([1]; single dose, 10 mg/kg intragastric, 40 min after administration, in s (unit assumed)): 92.85 ± 38.81
- forced swimming Immobility time ([1]; single dose, 20 mg/kg intragastric, 40 min after administration, in s (unit assumed)): 87.55 ± 42.50
- forced swimming Immobility time ([1]; single dose, 40 mg/kg intragastric, 40 min after administration, in s (unit assumed)): 90.86 ± 39.53
- IC50COX-1/IC50COX-2 [2]: 44.0
- IC50 ([2]; LPS, PGE2, read-out: IC50 (μg/mL) COX-2 (converted)): 899 nM
- IC50 [3]: 39.5 µM
